Experimental data as given in US20220226335A1, “Non-Peptidic Heterocycle-Containing Compounds for the Treatment of Alzheimer?s Disease” (The Governors of the University of Alberta, priority 2019, published 2022).
Read-outs that look alike come from different tables or passages of the source. Where no end group is shown, it is not given here.

Tests used:
brain hippocampal slices = test: hippocampal long term potentiation (LTP) electrophysiology, slices from wild type mice; parameters: species or system mouse; details: for effect on human amylin-induced depression/reduction of LTP: hippocampal slices, Compounds 3 and 23 at 1 μM
Source text: Hippocampal long term potentiation (LTP) electrophysiology experiments: an in vitro cellular surrogate for memory. Brains were quickly removed from mice following decapitation, placed in a cold artificial cerebral spinal fluid (aCSF) on a vibratome chamber and transverse sections cut through the hippocampus. The aCSF contained (in mM) 124 NaCl, 3 KCl, 2.4 CaCl2), 2 MgCl2, 1.25 NaH2PO4, 26 NaHCO3 and 10 D-glucose, and was equilibrated with 95% O2 and 5% CO2. Hippocampal slices ([…]) were maintained in aCSF-filled holding chamber at room temperature for at least 1 hour and individually transferred to the submerged glass bottom recording chamber, which was constantly perfused with aCSF (2 mL/min) at 30° C. Field excitatory postsynaptic potential (fEPSP) was recorded with a metallic (Pt/Ir) electrode (FHC, Bowdoin, Me.) from the stratum radiatum layer of Cornu ammonis 1 region of the hippocampus (CA1) area, and the Schaffer collateral afferents were stimulated with 100-μs test pulses via a bipolar cluster electrode (FHC) (Kimura et al., 2012, Kimura et al. 2016). To evaluate basal synaptic transmission, we applied different stimulation strengths (75 μA to 300 μA in steps of 25 μA) and plotted the amplitudes of presynaptic fiber volleys versus the corresponding fEPSP slopes to compare the slope of input/output (I/O) curves of fEPSP. For long-term potentiation (LTP) experiments, the stimulus strength was set to elicit 40-50% of the maximum fEPSP amplitude and test pulses were delivered to Schaffer collaterals once every 30 seconds. LTP was induced by 3-theta-burst stimulation (3-TBS) protocol (each burst consisted of 4 pulses at 100 Hz with a 200-ms inter-burst interval). Before 3-TBS or drug application, the responses were monitored for at least 10 minutes to ensure a stable baseline of fEPSP. […] Results were from various treatment groups were plotted as histograms with means±standard error (SE). […]

[1] = test system: N2a (mouse) neuronal cells; test: MTT cell death assay, N2a neuronal cells; format: cell-based; details: 10 μM Aβ1-42 for 24 hours
Method: (§1) MTT Cell Death Assay. The N2a (mouse) and SK-N-SH (human) neuronal cells were seeded to 5000 cells/well in a 96-well plate in DMEM medium, 10% FBS and incubated overnight. Cells in culture medium were incubated either with or without the assay compounds and Aβ1-42, 10 μM for 24-48 h. At the end of treatment, 20 μL of 5 mg/mL 3-(4,5-dimethylthiazol-2-yl)-2,5-diphenyltetrazolium bromide (MTT, Sigma) was added to each well and incubated at 37° C. for 3 h. Medium was removed, 100 μL of MTT solvent (isopropanol with 4 mM HCl) was added to each well, and the plates were incubated for 30 min at room temperature on a rotating shaker. Plates were analyzed on a microplate reader at a 562 nm wavelength.
(§2) FIGS. 2A and 2B. In mouse and human neuronal cell lines co-application of Compound 3 blunted human amylin and amyloid beta induced cytotoxicity. Neuronal cell lines N2a and SK-N-HS were treated with increasing concentrations of Compound 3 plus 10 μM Aβ1-42 or 5 μM hAmylin for 48 h.

[2] = target: T1, amylin receptor subtype 3 (AMY3) (Homo sapiens, UniProt O60896+P30988); test: cAMP assay in amylin receptor subtype 3 expressing cells (AMY3-HEK), ELISA and in-cell Western; format: cell-based; details: for IC50: compound and human amylin applied simultaneously, read-out: IC50 required to block hAmylin induced cAMP increase
T1 construct: expressed in transfected cells
T1 sequence (P30988 25-474): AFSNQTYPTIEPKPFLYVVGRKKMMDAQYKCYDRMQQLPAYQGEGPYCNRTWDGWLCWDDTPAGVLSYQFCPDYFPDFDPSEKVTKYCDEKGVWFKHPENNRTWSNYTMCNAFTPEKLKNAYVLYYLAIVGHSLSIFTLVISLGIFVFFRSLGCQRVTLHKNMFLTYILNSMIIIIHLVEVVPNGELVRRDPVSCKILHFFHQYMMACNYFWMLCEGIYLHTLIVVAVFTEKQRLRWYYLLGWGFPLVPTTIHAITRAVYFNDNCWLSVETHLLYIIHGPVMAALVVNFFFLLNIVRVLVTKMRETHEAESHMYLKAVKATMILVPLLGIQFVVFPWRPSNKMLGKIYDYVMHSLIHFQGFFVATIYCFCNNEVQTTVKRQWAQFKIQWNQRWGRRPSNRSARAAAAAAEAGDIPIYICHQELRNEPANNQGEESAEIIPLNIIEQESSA
T1 sequence (O60896 24-148): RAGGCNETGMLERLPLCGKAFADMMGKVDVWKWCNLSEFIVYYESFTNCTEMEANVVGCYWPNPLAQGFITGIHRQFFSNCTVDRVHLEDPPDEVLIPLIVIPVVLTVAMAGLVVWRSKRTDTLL
Method: An initial set of 10 compounds was screened using a cyclic AMP (cyclic adenosinemonophosphate, cAMP) assay in amylin receptor subtype 3 expressing cells.
Cell Cultures. Amylin receptor subtypes (AMY3-HEK cells) stably expressed in human embryonic kidney (HEK293) cell-line were generated and characterized as described in a previous published article from our laboratory (Fu et al., J. Biol. Chem. 2012). The AMY3-HEK cells were grown in a 5% CO2 humidified incubator at 37° C. with DMEM, 10% FBS, and 100 μg/mL Zeocin medium.
Two cAMP detection methods were used to validate the findings.
ELISA (enzyme-linked immunosorbent assay). Cellular cAMP levels were measured using a parameter cyclic AMP assay kit (R&D Systems) according to the manufacturer's instructions. Briefly, AMY3-HEK cells were plated on 24-well plates overnight. These cells were then incubated with or without the assay compounds and hAmylin for 5 min. The cells were lysed with lysis buffer provided in the assay kit. Standard curves were plotted using the cAMP standards provided in the ELISA kits. All samples were analyzed in duplicate. The plate is measured at 450 nm. Data was plotted, and non-linear regression was fitted with four parameters using Prism software (GraphPad Software, La Jolla, Calif.).
In-cell Western blot technique. Intracellular cAMP signaling profiles were also determined using in-cell Western blot technique as previously described (Fu W, et al., J Biol Chem. 2012; 287(22):18820-30). AMY3-HEK cells were seeded at 10,000 cells/well in a 96-well plate (Nalge Nunc Intl., Rochester, N.Y.) in DMEM, 10% FBS, Zeocin medium and cultured overnight. […] For cyclic adenosinemonophosphate (cAMP) quantification, mouse monoclonal anti-cAMP (R&D Systems) was used as a primary antibody, and IRDye 800 goat anti mouse antibody (LI-COR) was used as a secondary antibody, whereas Sapphire700 and DRAQ5 were used for cell number normalization (LI-COR). […]

Aβ plaques = test: Aβ plaque load (FIG. 8); format: in vivo
N2a cells = test: Live/Dead cell assay; format: cell-based, mouse; details: data not shown
Method: Live/Dead cell assay. LIVE/DEAD™ Viability/Cytotoxicity Kit from ThermoFisher Scientific (Invitrogen) was used according to the instructions of the manufacturer. Briefly, The N2a cells were cultured in 8 well Lab-Tek chamber slide (ThermoFisher Scientific, Nunc). Cells were incubated either with or without the assay compounds, followed by treatment with Aβ1-42 for 24 h. At the end of treatment, the cells were washed three times with D-PBS, followed added live/dead reagent in D-PBS and culture for 30 min. Then fixed the cells with 4% paraformaldehyde for 10 min. Further washed the cells with PBS three times and sealed with coverslip. View the labeled cells under fluorescence microscope. Fluorescent microscopy images were acquired with an Axioplan-2 fluorescence microscope with AxioVision software (Carl Zeiss Ltd., Toronto, ON, Canada). Live/Dead cells were analyzed with Image J software (Schneider, C. A., Rasband, W. S., Eliceiri, K. W. “NIH Image to ImageJ: 25 years of image analysis”. Nature Methods 2012; 9:671-675).

[3] = test system: hippocampal brain slices from transgenic AD mice (TgCRND8); test: hippocampal LTP electrophysiology, slices from transgenic AD mice (TgCRND8); parameters: species or system mouse; details: compared with age-matched control/wild type mice
Source text: Hippocampal long term potentiation (LTP) electrophysiology experiments: an in vitro cellular surrogate for memory. Brains were quickly removed from mice following decapitation, placed in a cold artificial cerebral spinal fluid (aCSF) on a vibratome chamber and transverse sections cut through the hippocampus. The aCSF contained (in mM) 124 NaCl, 3 KCl, 2.4 CaCl2), 2 MgCl2, 1.25 NaH2PO4, 26 NaHCO3 and 10 D-glucose, and was equilibrated with 95% O2 and 5% CO2. Hippocampal slices ([…]) were maintained in aCSF-filled holding chamber at room temperature for at least 1 hour and individually transferred to the submerged glass bottom recording chamber, which was constantly perfused with aCSF (2 mL/min) at 30° C. Field excitatory postsynaptic potential (fEPSP) was recorded with a metallic (Pt/Ir) electrode (FHC, Bowdoin, Me.) from the stratum radiatum layer of Cornu ammonis 1 region of the hippocampus (CA1) area, and the Schaffer collateral afferents were stimulated with 100-μs test pulses via a bipolar cluster electrode (FHC) (Kimura et al., 2012, Kimura et al. 2016). […] Before 3-TBS or drug application, the responses were monitored for at least 10 minutes to ensure a stable baseline of fEPSP. […]

amylin receptor = test: downstream phosphoERK response; format: cell-based; details: among Compounds 22-25
[4] = test system: SK-N-SH (human) neuronal cells; test: MTT cell death / cytotoxicity assay, SK-N-SH neuronal cells; format: cell-based; details: 10 μM Aβ1-42 for 24 hours
Method: as §1, §2

[5] = test system: hippocampus of Alzheimer's disease mice (TgCRND8); details: Kimura et al., 2012; 2016; cited from earlier work
neurons = details: Jhamandas et al., 2004; 2011; 2012; cited from earlier work

COC(=O)N[C@H](C(=O)N1CCC[C@H]1c1ncc(-c2ccccc2)[nH]1)C(C)C [AVI9030, methyl N-[(1S)-2-methyl-1-[[(2S)-2-(5-phenyl-1H-imidazol-2-yl)-1-pyrrolidinyl]carbonyl]propyl]carbamate, reference compound]
effect on human amylin-induced depression/reduction of LTP (brain hippocampal slices): did not block human amylin-induced reduction of LTP

Cc1nc(C)c(CCC(=O)N2CC(=O)Nc3ccccc32)c(=O)[nH]1 [Compound 23, 4-(3-(2,4-dimethyl-6-oxo-1,6-dihydropyrimidin-5-yl)propanoyl)-3,4-dihydroquinoxalin-2(1H)-one]
neuroprotection against amyloid beta toxicity [1]: neuroprotective against amyloid beta toxicity | IC50 ([2]; 0.1 μM hAmylin): 1 nM | IC50 ([2]; 1 μM hAmylin): 150 nM | potency rank in cAMP assay ([2]; among Compounds 22-25): most potent of these four analogues | area covered by plaques (Aβ plaques): decreases | total Aβ plaques (Aβ plaques): decreases | effect on human amylin-induced depression/reduction of LTP (brain hippocampal slices): restored the reduction in LTP by nanomolar dose of human amylim (h-Amylin) to control levels | effect on amyloid beta (Aβ)-induced reduction in LTP (brain hippocampal slices; nanomolar dose of Aβ, compound 1 μM): restored to control levels | neuroprotective effects against Aβ toxicity, Live/Dead cell assay (N2a cells): confirmed neuroprotective effects | effect on chronically depressed LTP in transgenic AD mice slices [3]: restoration of LTP in AD mice to levels comparable to wild type mice | potency rank in downstream phosphoERK response (amylin receptor): most potent of these four analogues | neuroprotection against amyloid beta toxicity [4]: neuroprotective against amyloid beta toxicity

AC253: peptide antagonist of the amylin receptor, SEQ ID NO: 1 (Ac-LGRLSQELHRLQTYPRTNTGSNTY)
effect on Aβ- or human amylin-induced depression of long-term potentiation [5]: can reverse impairment of Aβ- or human amylin-induced depression of long-term potentiation | neuroprotection against Aβ toxicity (neurons): neuroprotective against Aβ toxicity

cyclized AC253: cyclized AC253 (CLGRLSQELHRLQTYPRTNTGSNTYC; also: cyclised, mode of ring closure not given here) [reference compound]
area covered by plaques (Aβ plaques): decreases | total Aβ plaques (Aβ plaques): decreases
